The values that follow come from US9409923B2, “Drug-fluorophore complex for specific detection of tumor cells” (KOREA INSTITUTE OF SCIENCE AND TECHNOLOGY, priority 2013, dated 2016).

For data set [1] the following is noted: in vivo; cited from earlier work.
Data set [2] concerns HCT-116 cells (colorectal cancer cells) including luciferase. The data set is described as follows: Specific in vivo imaging of tumor cells (fluorescence vs luminescence, IVIS) in mouse liver tumors. More on the design: species or system Mice. To be noted: 25 μM in PBS (pH 7.4), 50 μl dropped on open abdomen, observed after 3 min; FIGS. 2a-2d. On the procedure: (§1) Mice were anesthetized with intraperitoneal injection of ketamine and xylazine, and their abdomens were cut open. HCT-116 cells (colorectal cancer cells) including luciferase were added at a concentration of 1×10^6 cells to 20 μl saline solution and injected into the left lobe of the liver to induce tumors in the mice. Four weeks after cell injection, the tumors were imaged as follows:
(§2) The compounds of Synthesis Examples 1-5 were dissolved in PBS (pH 7.4) to prepare 25 μM solutions. Mice were anesthetized intraperitoneally and their abdomens were open. 50 μl of each of the compounds was dropped using a 100 μl pipette. After 3 min, fluorescence and luminescence were observed using an imaging system (IVIS®).
FIGS. 2a to 2d are images showing fluorescence (2a) and luminescence (2b) from the fluorophore to which toremifene was not bonded, and images showing fluorescence (2c) and luminescence (2d) from the complex of the present invention in which the fluorophore was bonded to toremifene.

The test system is the same in data set [3]. The data set is described as follows: Ex vivo imaging on liver sections excised from mice. In kind it is in vivo. To be noted: FIGS. 3a-3d. On the procedure:
as §1, §2
Similarly to the procedure described above, ex vivo imaging was performed on liver sections excised from mice. The results are shown in FIGS. 3a to 3d (3a and 3b: fluorescence and luminescence images of the fluorophore, respectively; 3c and 3d: fluorescence and luminescence images of the drug-fluorophore complex, respectively).

As to `CC1(C)S[C@@H]2[C@H](NC(=O)[C@H](N)c3ccccc3)C(=O)N2[C@H]1C(=O)O` [Ampicillin], the Volume of distribution in data set [1] was 0.38 L/kg.

With `CNCCOc1ccc(/C(=C(/CCCl)c2ccccc2)c2ccccc2)cc1` [N-desmethyltoremifene], the Volume of distribution in data set [1] is reported as 8.3 L/kg.

Regarding `CC[N+]1=C(/C=C/C=C/C=C2/N(CCCCCC(=O)N(C)CCOc3ccc(/C(=C(/CCCl)c4ccccc4)c4ccccc4)cc3)c3ccc4c(S(=O)(=O)O)cc(S(=O)(=O)O)cc4c3C2(C)C)C(C)(C)c2c1ccc1c(S(=O)(=O)O)cc(S(=O)(=O)[O-])cc21` [Synthesis Example 3, N-desmethyl toremifene-FCR675 Carboxylic Acid Complex], the “fluorescence in tumor-bearing liver compared with luminescence position” value in data set [2] is listed as “fluorescence was observed in the section of the liver, which was the same as the position confirmed by luminescence”. The “fluorescence and luminescence in excised liver sections (ex vivo imaging)” value in data set [3] is “the same results of the in vivo imaging were observed in the ex vivo imaging”.
